Measured values from patent publication US11306087B2, “Inhibitors of KRAS G12C and methods of using the same” (Amgen Inc., priority 2017, dated 2022).

Assays:
[1] = target: GDP-bound KRAS protein (aa 1-169), containing both G12C and C118A amino acid substitutions (Homo sapiens (Human), UniProt P01116, C118A/G12C); experiment: Coupled Nucleotide Exchange Assay; type: biochemical; conditions: 5 min compound pre-incubation; inhibition of SOS-mediated nucleotide exchange; AlphaScreen
Procedure: For compounds in Table 2, the following assay conditions were employed: Coupled Nucleotide Exchange Assay: Purified GDP-bound KRAS protein (aa 1-169), containing both G12C and C118A amino acid substitutions and an N-terminal His-tag, was pre-incubated with a compound dose-response titration for 5 min in assay buffer (25 mM HEPES pH 7.4, 10 mM MgCl2, and 0.01% Triton X-100). Following compound pre-incubation, purified SOS protein (aa 564-1049) and GTP (Roche 10106399001) were added to the assay wells and incubated for an additional 30 min. To determine the extent of inhibition of SOS-mediated nucleotide exchange, purified GST-tagged cRAF (aa 1-149), nickel chelate AlphaLISA acceptor beads (PerkinElmer AL108R), and AlphaScreen glutathione donor beads (PerkinElmer 6765302) were added to the assay wells and incubated for 5 minutes. The assay plates were then read on a PerkinElmer EnVision Multilabel Reader, using AlphaScreen® technology, and data were analyzed using a 4-parameter logistic model to calculate IC50 values.

[2] = tested on: Phosphorylation of ERK1/2 in MIA PaCa-2 cells; experiment: Phospho-ERK1/2 MSD Assay; type: cell-based; conditions: Homo sapiens, 2 hours compound treatment, 10 ng/mL EGF for 10 min, read-out: p-ERK IC50 (MIA PaCa-2)
Procedure: Phospho-ERK1/2 MSD Assay: MIA PaCa-2 (ATCC® CRL-1420™) and A549 (ATCC® CCL-185™) cells were cultured in RPMI 1640 Medium (ThermoFisher Scientific 11875093) containing 10% fetal bovine serum (ThermoFisher Scientific 16000044) and 1× penicillin-streptomycin-glutamine (ThermoFisher Scientific 10378016). Sixteen hours prior to compound treatment, MIA PaCa-2 or A549 cells were seeded in 96-well cell culture plates at a density of 25,000 cells/well and incubated at 37° C., 5% CO2. A compound dose-response titration was diluted in growth media, added to appropriate wells of a cell culture plate, and then incubated at 37° C., 5% CO2 for 2 hours. Following compound treatment, cells were stimulated with 10 ng/mL EGF (Roche 11376454001) for 10 min, washed with ice-cold Dulbecco's phosphate-buffered saline, no Ca^2+ or Mg^2+ (ThermoFisher Scientific 14190144), and then lysed in RIPA buffer (50 mM Tris-HCl pH 7.5, 1% Igepal, 0.5% sodium deoxycholate, 150 mM NaCl, and 0.5% sodium dodecyl sulfate) containing protease inhibitors (Roche 4693132001) and phosphatase inhibitors (Roche 4906837001). Phosphorylation of ERK1/2 in compound-treated lysates was assayed using Phospho-ERK1/2 Whole Cell Lysate kits (Meso Scale Discovery K151DWD) according to the manufacturer's protocol. Assay plates were read on a Meso Scale Discovery Sector Imager 6000, and data were analyzed using a 4-parameter logistic model to calculate IC50 values.

Sequence of GDP-bound KRAS protein (aa 1-169), containing both G12C and C118A amino acid substitutions (P01116 other isoform, or with tags, fused parts or gaps G12C/C118A): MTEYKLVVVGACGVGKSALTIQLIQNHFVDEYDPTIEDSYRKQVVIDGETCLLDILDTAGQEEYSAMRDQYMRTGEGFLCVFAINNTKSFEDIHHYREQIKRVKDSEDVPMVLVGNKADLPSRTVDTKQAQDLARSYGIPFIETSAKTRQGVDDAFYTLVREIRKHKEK

C=CC(=O)N1[C@H](C)CN(c2nc(=O)n(-c3c(C(C)C)ncnc3C(C)C)c3nc(-c4c(O)cccc4F)c(Cl)cc23)C[C@@H]1C [Example 20, 4-(4-Acryloyl-cis-3,5-dimethylpiperazin-1-yl)-6-chloro-1-(4,6-diisopropylpyrimidin-5-yl)-7-(2-fluoro-6-hydroxyphenyl)pyrido[2,3-d]pyrimidin-2(1H)-one]
IC50 [1]: 34 nM
IC50 [2]: 22 nM

C=CC(=O)N1C[C@H](C)N(c2nc(=O)n(-c3c(C(C)C)ncnc3C(C)C)c3nc(-c4ccccc4F)c(Cl)cc23)C[C@H]1C [Example 7, 4-((2S,5R)-4-Acryloyl-2,5-dimethylpiperazin-1-yl)-6-chloro-1-(4,6-diisopropylpyrimidin-5-yl)-7-(2-fluorophenyl)pyrido[2,3-d]pyrimidin-2(1H)-one]
IC50 [1]: 49 nM
IC50 [2]: 26 nM

C=CC(=O)N1C[C@H](C)N(c2nc(=O)n(-c3c(C)ccnc3C(C)C)c3nc(-c4c(O)cccc4F)c(Cl)cc23)C[C@H]1C [Example 2, 4-((2S,5R,M)-4-Acryloyl-2,5-dimethylpiperazin-1-yl)-6-chloro-7-(2-fluoro-6-hydroxyphenyl)-1-(2-isopropyl-4-methylpyridin-3-yl)pyrido[2,3-d]pyrimidin-2(1H)-one]
IC50 [1]: 27 nM
IC50 [2]: 16 nM

C=CC(=O)N1C[C@H](C)N(c2nc(=O)n(-c3c(C)ccnc3C(C)C)c3nc(-c4c(N)cccc4F)c(F)cc23)C[C@H]1C [Example 6, 4-((2S,5R,M)-4-Acryloyl-2,5-dimethylpiperazin-1-yl)-7-(2-amino-6-fluorophenyl)-6-fluoro-1-(2-isopropyl-4-methylpyridin-3-yl)pyrido[2,3-d]pyrimidin-2(1H)-one]
IC50 [1]: 38 nM
IC50 [2]: 26 nM

C=CC(=O)N1[C@H](C)CN(c2nc(=O)n(-c3c(C(C)C)ncnc3C(C)C)c3nc(-c4c(N)cccc4F)c(Cl)cc23)C[C@@H]1C [Example 21, 4-(4-Acryloyl-cis-3,5-dimethylpiperazin-1-yl)-7-(2-amino-6-fluorophenyl)-6-chloro-1-(4,6-diisopropylpyrimidin-5-yl)pyrido[2,3-d]pyrimidin-2(1H)-one]
IC50 [1]: 92 nM
IC50 [2]: 36 nM

C=CC(=O)N1C[C@H](C)N(c2nc(=O)n(-c3c(C)ccnc3C(C)C)c3nc(-c4ccccc4F)c(F)cc23)C[C@H]1C [Example 4, 4-((2S,5R,M)-4-Acryloyl-2,5-dimethylpiperazin-1-yl)-6-fluoro-7-(2-fluorophenyl)-1-(2-isopropyl-4-methylpyridin-3-yl)pyrido[2,3-d]pyrimidin-2(1H)-one]
IC50 [1]: 206 nM
IC50 [2]: 102 nM

C=CC(=O)N1[C@H](C)CN(c2nc(=O)n(-c3c(C)ccnc3C(C)C)c3nc(-c4ccccc4F)c(Cl)cc23)C[C@@H]1C (atropisomer, axis not shown; (M)) [Example 13, (M)-4-(4-Acryloyl-cis-3,5-dimethylpiperazin-1-yl)-6-chloro-7-(2-fluorophenyl)-1-(2-isopropyl-4-methylpyridin-3-yl)pyrido[2,3-d]pyrimidin-2(1H)-one]
IC50 [1]: 53 nM
IC50 [2]: 46 nM
